The substances below were run on a strand of SEQ ID NO:1 (assay: Specific hybridization of LDLR adaptin domain-encoding polynucleotides under stringent conditions). Details: CC domain encoding polynucleotides; Conditions I and/or II.
Type: binding, human
Set-up: key: +: hybridize with a strand of SEQ ID NO:1 under Conditions I and/or II
Excerpt: These natural sequence LDLR adaptin polynucleotides provide hybridization probes and replication/amplification primers having a disclosed LDLR adaptin domain encoding cDNA sequence or fragments thereof sufficient to effect specific hybridization thereto. Such primers or probes are at least 12, preferably at least 24, more preferably at least 36 and most preferably at least 96 bases in length.

Substance	Hybridization
SEQ ID NO:1, nucleotides 775-789: LDLR adaptin CC domain encoding polynucleotide (DNA TTTTCGAGGCTTGCC; chemistry not given here)	+
SEQ ID NO:1, nucleotides 801-828: LDLR adaptin CC domain encoding polynucleotide (DNA AAACCCTCAGGTCCTGGACACTGGCCTG; chemistry not given here)	+
SEQ ID NO:1, nucleotides 742-770: LDLR adaptin CC domain encoding polynucleotide (DNA GTCTGGGAGCTGGATGATGGCCTGGATGA; chemistry not given here)	+
SEQ ID NO:1, nucleotides 799-824: LDLR adaptin CC domain encoding polynucleotide (DNA ACAAACCCTCAGGTCCTGGACACTGG; chemistry not given here)	+
SEQ ID NO:1, nucleotides 784-809: LDLR adaptin CC domain encoding polynucleotide (DNA CTTGCCCAGTCTCGGACAAACCCTCA; chemistry not given here)	+

Same assay, conditions: PTB domain encoding polynucleotides; Conditions I and/or II

Substance	Hybridization
SEQ ID NO:1, nucleotides 393-416: LDLR adaptin PTB domain encoding polynucleotide (DNA CATCGCCCAGAGCCAGCACAACCA; chemistry not given here)	+
SEQ ID NO:1, nucleotides 249-272: LDLR adaptin PTB domain encoding polynucleotide (DNA GAAGCTGCAGAAGGTGACTCTGAA; chemistry not given here)	+
SEQ ID NO:1, nucleotides 442-465: LDLR adaptin PTB domain encoding polynucleotide (DNA TGCACCAAGCGGAAGATGGCACAG; chemistry not given here)	+
SEQ ID NO:1, nucleotides 417-440: LDLR adaptin PTB domain encoding polynucleotide (DNA GAGCCTCGAGTGCCACGCCTTCCT; chemistry not given here)	+
SEQ ID NO:1, nucleotides 297-320: LDLR adaptin PTB domain encoding polynucleotide (DNA GACAGACAACCTCACCAACCAGCT; chemistry not given here)	+
SEQ ID NO:1, nucleotides 511-525: LDLR adaptin PTB domain encoding polynucleotide (DNA TTTTGGCAGGTGTCC; chemistry not given here)	+
SEQ ID NO:1, nucleotides 321-344: LDLR adaptin PTB domain encoding polynucleotide (DNA CATTGAGAACGTGTCCATATACAG; chemistry not given here)	+
SEQ ID NO:1, nucleotides 142-164: LDLR adaptin PTB domain encoding polynucleotide (DNA TTCAGCCTCAAGTACCTGGGCAT; chemistry not given here)	+
SEQ ID NO:1, nucleotides 345-368: LDLR adaptin PTB domain encoding polynucleotide (DNA GATCTCCTATTGCACAGCAGACAA; chemistry not given here)	+
SEQ ID NO:1, nucleotides 185-218: LDLR adaptin PTB domain encoding polynucleotide (DNA AGGGTGAGGAGCTGTCGGCCGCCGCCATCAAGAG; chemistry not given here)	+
SEQ ID NO:1, nucleotides 369-392: LDLR adaptin PTB domain encoding polynucleotide (DNA GATGCACGACAAGGTGTTTGCATA; chemistry not given here)	+
SEQ ID NO:1, nucleotides 491-511: LDLR adaptin PTB domain encoding polynucleotide (DNA CCTTCAAAGTCGCCTTTGAGT; chemistry not given here)	+
SEQ ID NO:1, nucleotides 263-286: LDLR adaptin PTB domain encoding polynucleotide (DNA TGACTCTGAAGGTGTCGCCACGGG; chemistry not given here)	+

These substances were tested against T1, GST-PTB domain fusion protein (Homo sapiens, UniProt Q5SW96) (assay: Fluorescence polarization binding of fluorescent LDLR peptide probe to the PTB domain). Details: after 5 min at 4° C.
T1 construct: made in house
T1 sequence (Q5SW96 48-175): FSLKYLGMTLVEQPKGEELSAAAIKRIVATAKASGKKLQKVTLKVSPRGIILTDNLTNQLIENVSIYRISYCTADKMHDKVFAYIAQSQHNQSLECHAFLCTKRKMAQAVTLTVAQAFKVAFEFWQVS
Description: Peptide binding to the GST-PTB domain fusion protein is measured by using fluorescence polarization (also known as fluorescence anisotropy; Li, et al. 1997 Proc. Natl. Acad. Sci. USA 94:7204-7209) is a protocol adapted from Howell et al. 1999 Mol Cell Biol 19, 5179-5188. A16-mer LDLR peptide (acetyl-SINFDNPVYQKTTEDE-amide, residues 820-835 of SEQ ID NO:8) and its phosphorylated analog (phosphate on the tyrosine) are synthesized with an AMS 222 Multiple Peptide Synthesizer using TenetaGel S resin (Rapp Polymere) and purified by high-pressure liquid chromatography. Peptide concentrations are determined by spectrophotometry and confirmed by amino acid analysis. […] Reactions are stopped with 5 μmol of Tris HCl (pH 8.0) and analyzed by thin-layer chromatography (Silica gel 60; methanol-acetic acid-water [4:1:1]). […] Based on fluorescence intensity, the fluorescent peptide (probe) concentration in binding reaction mixtures was estimated to be 20 nM.
Binding measurements are performed in a Beacon 2000 Variable Temperature Fluorescence Polarization System (PanVera Corporation). Essentially, a constant concentration of fluorescent probe peptide is incubated with various concentrations of the GST-PTB domain or GST in 100 μl of 0.5% Triton X-100-20 mM glutathione-200 mM Tris HCl (pH 8.0) at 4° C. and fluorescence polarization is measured. […]

Binding, percent of maximum	Substance
95%	acetyl-SINFDNPVYQKTTEDE-amide (Ac-SINFDNPVYQKTTEDE-NH2; also: fluorescein-C6 label, site not given here) [fluorescent probe peptide]

Same assay, conditions: linear Hill plot, noncooperative binding

Hill plot slope	Substance
1.0	acetyl-SINFDNPVYQKTTEDE-amide (Ac-SINFDNPVYQKTTEDE-NH2; also: fluorescein-C6 label, site not given here) [fluorescent probe peptide]
